Source: patent publication US10179780B2, “Azole benzene derivative and crystalline form thereof” (TEIJIN PHARMA LIMITED, priority 2014, dated 2019)

Columns and labels:
[1] = tested on: level of uric acid in the blood; assay: Prolonged hypouricemic effect (normal rats), 24 hours after oral administration; format: in vivo, Sprague-Dawley male rats; details: 24 hours after administration
Method: The crystal form A of the compound (II) was administered to Sprague-Dawley male rats in the similar manner as Example 5.
After the blood was collected from the tail vein 24 hours after administration, the plasma was separated. The level of uric acid in the blood was measured by an uricase method using an absorption spectrometer and a uric acid determination kit (L type Wako UA F: Wako Pure Chemical Industries, Ltd.). The percentage of hypouricemic effect was determined by the following expression: Percentage of hypouricemic effect=(Level of uric acid of the control animal−Level of uric acid of the test compound-administered animal)×100/Level of uric acid of the control animal.

[2] = tested on: level of uric acid in the blood; assay: Hypouricemic effect (normal rats), 2 hours after oral administration; details: 2 hours after administration
Method: A test compound suspended in a 0.5% methylcellulose solution was administered to 8 to 9 week-old Sprague-Dawley male rats (Japan Charles River Co.) by oral gavage administration using a feeding needle. After the blood was collected from the tail vein at 2 hours after administration, the plasma was separated. The level of uric acid in the blood sample was measured by uricase method using an absorption spectrometer as well as a uric acid determination kit (L type Wako UA F: Wako Pure Chemical Industries, Ltd.). The percentage of hypouricemic effect was determined by the following expression: Percentage of hypouricemic effect (%)=(Level of uric acid of the control animal−Level of uric acid of the test compound-administered animal)×100/Level of uric acid of the control animal.

[3] = tested on: level of uric acid in the plasma; assay: Hypouricemic effect (oxonic acid-induced hyperuricemic beagle dogs); format: in vivo; details: hyperuricemic beagle dog, oral, 10 mg/kg, 8 hours after administration
Method: The hypouricemic effect was confirmed for the compounds (I) in oxonic acid-induced hyperuricmic beagle dog. […] Potassium oxonate (50 mg/kg) was subcutaneously administrated before and 4 hours after compound administration. After the blood was collected from the cephalic vein at 8 hours after administration, the plasma was separated. The level of uric acid in the plasma sample was measured by LC-MS/MS method and the percentage of hypouricemic effect was determined by the following expression: Percentage of hypouricemic effect (%)=(Level of uric acid of the control animal−Level of uric acid of the test compound-administered animal)×100/Level of uric acid of the control animal.

[4] = Solubility into JP2 solution (pH 6.8); format: physicochemical
Method: The solubility of the compound (II) in JP2 solution (pH 6.8) was confirmed. A solution was prepared by mildly pulverizing the crystals A of the compound (II) in a mortar, and adding approximately 4 mg of the pulverized crystals to […] of JP2 solution while stirring at room temperature. The absorbance (At) of each solution at 280 nm was successively measured immediately after the addition of the crystals using an ultraviolet-visible absorbance measurement method and the solubility at each measurement time was determined by the following expression using the absorbance (As) of a standard solution at 280 mu determined in advance as an index. The measurement was continued until 120 minutes. Solubility=At/As×Cs (where Cs represents the concentration of a standard solution) • Measurement apparatus: μDISS Profiler manufactured by Pion Inc. • Stirring rate: 700 rpm • UV measurement wavelength: 280 nm • Measurement interval: Start of measurement to 1 minute: 3 seconds • 1 to 8 minutes: 20 seconds • 8 to 120 minutes: 2 minutes

| Precipitation / maintenance of dissolved state ([4]; JP2 solution pH 6.8, up to 120 minutes after the addition) | Time until total amount was dissolved ([4]; approximately 4 mg of pulverized crystals in JP2 solution pH 6.8, 700 rpm) [s] | solubility at 120 minutes ([4]; aqueous buffer, thermodynamic from solid, JP2 solution pH 6.8, room temperature, at 120 minutes after the addition) [µg/mL] | solubility at 30 seconds ([4]; aqueous buffer, thermodynamic from solid, JP2 solution pH 6.8, room temperature, total amount dissolved within 30 seconds after the addition) [µg/mL] | SMILES | Percentage of hypouricemic effect ([1]; 3 mg/kg) [%] | Percentage of hypouricemic effect ([1]; 10 mg/kg) [%] | Percentage of hypouricemic effect ([2]; 1 mg/kg) [%] | Percentage of hypouricemic effect ([2]; 10 mg/kg) [%] | hypouricemic effect [3] |
| --- | --- | --- | --- | --- | --- | --- | --- | --- | --- |
|  |  |  |  | Cc1nc(-c2ccc(OCC(C)C)c(-n3cnnn3)c2)sc1C(=O)O [compound (I), 4-methyl-2-[4-(2-methylpropoxy)-3-(1H-1,2,3,4-tetrazol-1-yl)phenyl]-1,3-thiazole-5-carboxylic acid] | ≥ 40 | ≥ 50 | ≥ 50 | ≥ 50 | showed a hypouricemic effect |
| no precipitation was observed | ≤ 30 | 184 | 187 | Cc1nc(-c2ccc(OCC(C)C)c(-n3cnnn3)c2)sc1C(=O)[O-].[Na+] [compound (II), sodium 4-methyl-2-[4-(2-methylpropoxy)-3-(1H-1,2,3,4-tetrazol-1-yl)phenyl]-1,3-thiazole-5-carboxylate] | ≥ 40 | ≥ 50 | ≥ 50 | ≥ 50 |  |
